Measured values as given in patent US5843950A, “1,4-dihydropyridine compound and pharmaceutical composition containing the same” (Nikken Chemicals Co., Ltd., priority 1994, dated 1998).
Where two headings read alike, the source gives them in different places.

Legend:
VJ-300 cells [1] = experiment: In vitro suppression of proliferation of multi-drug resistant VJ-300 cells by concomitant use with doxorubicin; type: cell-based, Human; conditions: test compound 1 μg/ml with ADM, ADM alone in KB = 1
Description: (§1) In vitro test of action suppressing proliferation of cancer cells by concomitant use with doxorubicin
(§2) As the incubation solutions, use was made of 10% fetal calf serum (made by Flow Laboratories) and Eagle MEM medium (made by Nissui Seiyakusha) containing 0.292 mg/ml of L-glutamine (made by Flow Laboratories). The tests of the action in overcoming resistance to anti-cancer drugs or action reinforcing the effect of the anti-cancer drug through concomitant use of the anti-cancer drug doxorubicin (adriamycin, ADM) and the test compound were performed as follows: The test cells were suspended in incubation solutions and adjusted to a cell density of about 200 cells/ml. The cell suspensions were injected in 2 ml amounts into petri dishes and were incubated in a CO2 gas incubator (5% CO2, 95% air) at 37° C. for 24 hours. Next, 5 to 10 μl of a predetermined concentration of the aqueous ADM solution and a predetermined concentration of a DMSO solution of the test compound were added, then the incubation was continued for a further 7 days. After the end of the incubation, the result was immobilized by methanol, Giemsa stained and measured for the number of colonies per dish. The results were used to prepare a volume-reaction curve.

KB cells [2] = experiment: In vitro suppression of proliferation of KB cancer cells by concomitant use with doxorubicin; type: cell-based, Human; conditions: test compound 1 μg/ml with ADM, ADM alone in KB = 1
Description: as §1, §2

Acute toxicity test = conditions: mouse, in vivo, ip; mice, intraperitoneal, 7 days observation
Description: Animals used: ICR male mice (Charles River Japan) 7-8 weeks old, three mice per group.
Test method: The compound of the present invention was suspended in 0.5% sodium carboxymethylcellulose (CMC-Na) containing 0.1% Tween 80. It was administered to the mice intraperitoneally from 2000 mg/kg to 125 mg/kg by a ratio of 1/2 and from 125 mg/kg to 31.3 mg/kg by a ratio of 1/√2 in groups of three mice until no more deaths were observed. The survival of the animals was observed up until 7 days after administration and the LD50 was calculated by the Van Der Wearder area method.

[3] = tested on: KCl contraction in rat arteries (thoracic aorta); experiment: Action easing KCl contraction in rat arteries (thoracic aorta ring); conditions: read-out: IC50 value (50% inhibitory concentration of hyperpotassium contraction), Test Example 7, Table 7, 37° C.
Description: Action easing KCl contraction in rat arteries
The specimen was stabilized for approximately 60 minutes, then a potassium chloride solution was added to the Magnus tube to give a final concentration of […]. The positive control compound or the compound of the present invention was cumulatively added from 1×10^-10 M to 1×10^-4 M when the contraction reaction occurring at that time reached equilibrium. The contraction force was recorded by an FD-pickup (made by Nihon Kodensha) via a polygraph (made by Nihon Kodensha).

TxA2 synthesis = TxA2 synthesis inhibiting action test (human blood platelet microsomes); type: biochemical; conditions: prostaglandin H2
Description: TxA2 Synthesis Inhibiting Action Test
One ml of a buffer (20 mM Tris-HCl buffer, 1 mM EDTA, pH 7.5) containing human blood platelet microsomes (50 μg protein/ml) and the test compound (final concentration 10^-7 M) was agitated, then incubated at 0° C. for 30 minutes. To this was added prostaglandin H2 (100 ng/2 μl). This was incubated at 23° C. for 3 minutes to cause a reaction. Next, 1M hydrochloric acid was added to make the solution acidic and stop the reaction, then this was neutralized by 1M Tris-Base and centrifuged at 3000 rpm for 20 minutes. The amount of the TxB2 in the supernatant was measured by the EIA method (Cayman Co. kit).

[4] = tested on: VCR resistant murine leukemia (P388/VCR) cells; experiment: In vivo effect for overcoming resistance to vincristine in VCR resistant murine leukemia (P388/VCR) bearing mice; design: species or system CDF1 male mice
Description: In vivo test of action suppressing proliferation of cancer cells by concomitant use with anti-cancer drug
The number of survival days were found and the life prolonging rate (T/C) with respect to the controls was found. The effect in overcoming resistance to an anti-cancer drug (T/V) was found by the following formula.
Effect for overcoming resistance to an anti-cancer drug (T/V) %
=[Life prolonging rate (T/C) in case of concomitant use of VCR and the compound of the present invention]/[Life prolonging rate (T/C) in case of VCR alone]×100
Using Compound 18 to Compound 22 and Compound 32, the same procedure was followed as in Test Example 5 to find the effect for overcoming resistance to an anti-cancer drug in vincristine (VCR) resistant murine leukemia cell bearing mice.

[5] = tested on: KCl contraction in rat arteries (thoracic aorta); experiment: Action easing KCl contraction in rat arteries (thoracic aorta ring); conditions: read-out: IC50 value (50% inhibitory concentration of hypercalcemic contraction), Test Example 8, Table 8
multi-drug resistance = conditions: Cancer Res., 41, 1967-1972 (1981); Cancer and Chemotherapy, vol. 11, pp. 750-759 (1984); cited from earlier work
KB cells [6] = experiment: In vitro suppression of proliferation of KB cancer cells by concomitant use with vincristine; type: cell-based, Human; conditions: test compound 1 μg/ml with VCR, VCR alone in KB = 1
Description: as §2
In vitro test of action suppressing proliferation of cancer cells by concomitant use with vincristine […]

VJ-300 cells [7] = experiment: In vitro suppression of proliferation of multi-drug resistant VJ-300 cells by concomitant use with vincristine; type: cell-based, Human; conditions: test compound 1 μg/ml with VCR, VCR alone in KB = 1
[8] = Test Example 5, Table 5, T/C with VCR + compound over T/C with VCR alone ×100
[9] = Test Example 5, Table 5, VCR 100 μg/kg i.p. 5 days with compound 100 mg/kg (verapamil 60, nicardipine 75 mg/kg)
[10] = Test Example 6, Table 6, same procedure as Test Example 5

Row | SMILES | LD50 at 168 h (Acute toxicity test) [mg/kg] | TxA2 synthesis inhibiting action Rate of suppression at 10^-7 mol (%) (TxA2 synthesis) | Effect for overcoming resistance T/V (%) [4, 8] [%] | Life prolonging rate T/C (%) [4, 9] [%] | Mean days of survival [4, 9] [days] | IC50 [5] [µM] | other results
1 | COc1cccc2c1C(=O)c1c(O)c3c(c(O)c1C2=O)C[C@@](O)(C(=O)CO)C[C@@H]3O[C@H]1C[C@H](N)[C@H](O)[C@H](C)O1 [ADM, doxorubicin] | – | – | – | – | – | – | Resistance with ADM, VJ-300 (LD50 concentration of ADM relative to ADM alone in KB cells) (VJ-300 cells [1]): 26.4; Resistance with ADM, KB (LD50 concentration of ADM relative to ADM alone in KB cells) (KB cells [2]): 1
2 | CC1=C(C(=O)OCCCc2cccnc2)C(C(C)C)C(C(=O)OCCCc2cccnc2)=C(C)N1 [Compound 1, 2,6-dimethyl-4-isopropyl-1,4-dihydropyridine-3,5-dicarboxylic acid bis[3-(3-pyridyl)propyl]ester] | 750 | 90.7 | – | – | – | – | IC50 [3]: > 30 µM
3 | CCCC(C)C1C(C(=O)OCCCc2cccnc2)=C(C)NC(C)=C1C(=O)OCCCc1cccnc1 (stereo not shown) [Compound 3, 2,6-dimethyl-4-(1-methylbutyl)-1,4-dihydropyridine-3,5-dicarboxylic acid bis[3-(3-pyridyl)propyl]ester] | 188 | 82.4 | 161 | 172 | 17.2 | – | –
4 | CC1=C(C(=O)OCCCc2cccnc2)C(Cc2ccccc2)C(C(=O)OCCCc2cccnc2)=C(C)N1 [Compound 5, 2,6-dimethyl-4-benzyl-1,4-dihydropyridine-3,5-dicarboxylic acid bis[3-(3-pyridyl)propyl]ester] | 1120 | – | – | – | – | 42 | –
5 | CC1=C(C(=O)OCCCc2cccnc2)C(C(c2ccccc2)c2ccccc2)C(C(=O)OCCCc2cccnc2)=C(C)N1 [Compound 6, 2,6-dimethyl-4-benzhydryl-1,4-dihydropyridine-3,5-dicarboxylic acid bis[3-(3-pyridyl)propyl]ester] | 2000 | – | – | – | – | – | IC50 [3]: 25.5 µM
6 | COC(=O)C1=C(C)NC(C)=C(C(=O)OCCCc2cccnc2)C1C(C)C (stereo not shown) [Compound 13, 2,6-dimethyl-4-isopropyl-1,4-dihydropyridine-3,5-dicarboxylic acid 3-methylester 5-[3-(3-pyridyl)propyl]ester] | – | 71.4 | – | – | – | 5.7 | –
7 | CC1=C(C(=O)OCCCc2cccnc2)C(C(C)C)C(C(=O)OCc2ccncc2)=C(C)N1 (stereo not shown) [Compound 15, 2,6-dimethyl-4-isopropyl-1,4-dihydropyridine-3,5-dicarboxylic acid 3-(4-pyridylmethyl) ester, 5-[3-(3-pyridyl)propyl]ester] | – | 83.5 | 134 | 144 | 14.4 | 4.2 | –
8 | CCCCCCCCC1C(C(=O)OCCCc2cccnc2)=C(C)NC(C)=C1C(=O)OCCCc1cccnc1 [Compound 16, 2,6-dimethyl-4-n-octyl-1,4-dihydropyridine-3,5-dicarboxylic acid bis[3-(3-pyridyl)propyl]ester] | > 2000 | – | – | – | – | 62 | –
9 | CCCCCC1C(C(=O)OCCCc2cccnc2)=C(C)NC(C)=C1C(=O)OCCCc1cccnc1 [Compound 18, 2,6-dimethyl-4-n-pentyl-1,4-dihydropyridine-3,5-dicarboxylic acid bis[3-(3-pyridyl)propyl]ester] | > 2000 | – | – | – | – | 4.6 | Effect for overcoming resistance T/V (%) [4, 10]: 140%; Life prolonging rate T/C (%) [4, 10]: 143%; Mean days of survival [4, 10]: 15.3 days
10 | CCCCCC#CC1C(C(=O)OCCCc2cccnc2)=C(C)NC(C)=C1C(=O)OCCCc1cccnc1 [Compound 32, 2,6-dimethyl-4-(1-heptynyl)-1,4-dihydropyridine-3,5-dicarboxylic acid bis[3-(3-pyridyl)propyl]ester] | – | – | – | – | – | 10.5 | Effect for overcoming resistance T/V (%) [4, 10]: 133%; Life prolonging rate T/C (%) [4, 10]: 136%; Mean days of survival [4, 10]: 14.5 days
11 | COC(=O)C1=C(C)NC(C)=C(C(=O)OCCN(C)Cc2ccccc2)C1c1cccc([N+](=O)[O-])c1 (stereo not shown) [Nicardipine, nicardipine, reference compound] | – | – | 123 | 132 | 13.2 | 0.15 | IC50 [3]: 0.53 µM; overcoming multi-drug resistance by concomitant administration with an anti-cancer drug (multi-drug resistance): effective
12 | CC[C@]1(O)C[C@H]2CN(CCc3c([nH]c4ccccc34)[C@@](C(=O)OC)(c3cc4c(cc3OC)N(C=O)[C@H]3[C@@](O)(C(=O)OC)[C@H](OC(C)=O)[C@]5(CC)C=CCN6CC[C@]43[C@@H]65)C2)C1 [VCR, vincristine, reference compound] | – | – | 100 | 107 | 10.7 | – | Resistance with VCR, KB (LD50 concentration of VCR relative to VCR alone in KB cells) (KB cells [6]): 1; Effect for overcoming resistance T/V (%) [4, 10]: 100%; Life prolonging rate T/C (%) [4, 10]: 102%; Mean days of survival [4, 10]: 10.9 days; Resistance with VCR, VJ-300 (LD50 concentration of VCR relative to VCR alone in KB cells) (VJ-300 cells [7]): 603.4
